Assay results reported in US20090298781A1, “COMPOUNDS FOR THE INHIBITION OF APOPTOSIS” (CONSEJO SUPERIOR DE, priority 2005, published 2009).
Non-standard residues stand in square brackets, D forms with d. Residues, ends and D or L forms follow the SMILES beside them. *: point of attachment. X1 = O=C1CC(C(=O)*)N(CCC(c2ccccc2)c2ccccc2)C(=O)CN1CCc1ccc(Cl)cc1Cl; N(2,4-Cl2-phenethyl)Gly = O=C(O)CNCCc1ccc(Cl)cc1Cl

Biological target: T1, recombinant Apaf-1 (Homo sapiens, UniProt O14727)
T1 construct: made in house
T1 sequence (O14727 1-1248): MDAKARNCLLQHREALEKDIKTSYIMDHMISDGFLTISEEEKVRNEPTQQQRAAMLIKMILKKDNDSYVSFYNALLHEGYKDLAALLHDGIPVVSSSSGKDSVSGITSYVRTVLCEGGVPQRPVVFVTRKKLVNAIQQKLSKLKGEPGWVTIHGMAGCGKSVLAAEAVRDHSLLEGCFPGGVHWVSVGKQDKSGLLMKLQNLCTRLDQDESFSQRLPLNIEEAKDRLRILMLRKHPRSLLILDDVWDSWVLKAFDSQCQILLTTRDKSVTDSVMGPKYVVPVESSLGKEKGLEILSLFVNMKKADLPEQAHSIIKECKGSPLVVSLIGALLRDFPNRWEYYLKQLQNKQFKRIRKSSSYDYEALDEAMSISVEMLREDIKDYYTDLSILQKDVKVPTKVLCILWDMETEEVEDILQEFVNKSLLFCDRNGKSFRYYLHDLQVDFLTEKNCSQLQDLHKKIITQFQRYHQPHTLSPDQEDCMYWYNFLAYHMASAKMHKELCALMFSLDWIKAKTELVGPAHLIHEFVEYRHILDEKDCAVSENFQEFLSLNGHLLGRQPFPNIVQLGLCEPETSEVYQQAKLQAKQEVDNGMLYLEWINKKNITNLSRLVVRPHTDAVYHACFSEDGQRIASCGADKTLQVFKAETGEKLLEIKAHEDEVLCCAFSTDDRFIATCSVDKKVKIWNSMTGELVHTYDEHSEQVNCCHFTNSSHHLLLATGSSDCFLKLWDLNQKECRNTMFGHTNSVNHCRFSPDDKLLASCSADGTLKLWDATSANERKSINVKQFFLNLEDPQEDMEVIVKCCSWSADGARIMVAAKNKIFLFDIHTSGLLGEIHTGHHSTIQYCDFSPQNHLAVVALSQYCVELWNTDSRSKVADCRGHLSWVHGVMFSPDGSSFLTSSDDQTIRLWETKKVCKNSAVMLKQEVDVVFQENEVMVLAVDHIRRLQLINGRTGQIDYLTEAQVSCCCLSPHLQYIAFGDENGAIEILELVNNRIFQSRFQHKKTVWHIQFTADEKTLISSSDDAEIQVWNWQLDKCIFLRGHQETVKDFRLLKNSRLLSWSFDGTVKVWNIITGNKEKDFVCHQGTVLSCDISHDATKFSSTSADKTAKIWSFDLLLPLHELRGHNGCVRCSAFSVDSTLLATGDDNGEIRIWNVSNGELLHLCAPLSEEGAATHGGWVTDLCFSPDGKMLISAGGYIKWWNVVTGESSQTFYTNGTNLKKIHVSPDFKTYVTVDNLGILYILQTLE
Assay: Cell-free caspase inhibition assay, Hek-293 FT cytoplasmatic fraction with recombinant Apaf-1
Format: biochemical
Conditions: Hek-293 FT fraction + recombinant Apaf-1 (FIG. 1), read-out: IC50, concentration needed to inhibit 50% of caspase activity
Protocol: The activity of the compounds regards their specific target within the apoptotic machinery was assessed. Apaf-1 oligomerisation is a molecular event that leads to the activation of the apoptosome formation, which ends up in the induction of apoptosis. These experiments were performed in cell-free and in cellular assays.
For the cell-free assays, Hek-293 cytoplasmatic extracts were prepared as described before (Malet et al, 2005) and a partitioning of the complete cell extract was carried out. Concomitantly, recombinant Apaf-1 was purified according to Malet et al, 2005. The FT fraction (containing caspase-3 and -9 but lacking Apaf-1), was incubated with recombinant Apaf-1 in the presence of different concentrations of the compounds (see FIG. 1). The activity of the compounds was analysed by the inhibition of caspase activity (see above).
FIG. 1: Cell-free caspase inhibition assay using Hek-293 FT cytoplasmatic fraction incubated with recombinant Apaf-1 in the presence of different concentrations the compound IIa.1.

Question: With `NCCCC[C@H](NC(=O)CNC(=O)CNC(=O)CN(CCc1ccc(Cl)cc1Cl)C(=O)C1CC(=O)N(CCc2ccc(Cl)cc2Cl)CC(=O)N1CCC(c1ccccc1)c1ccccc1)C(N)=O` (stereo partly shown) [IIa.1, 1-[2-(2,4-Dichlorophenyl)ethyl]-3-(3,3-diphenyl-propyl)-3,7-dioxo[1,4]diazepane-5-carboxylic acid {[({[(5-amino-1-carbamoylpentylcarbamoyl)methyl]-carbamoyl}methyl)carbamoyl]methyl}-[2-(2,4-dichlorophenyl)ethyl]amide] (X1-[N(2,4-Cl2-phenethyl)Gly]GGK-NH2) as the compound, how does the IC50 read?
Answer: Its IC50 is roughly 30 µM.
